Values of other authors as cited in patent US12616197B2, “Three-dimensional printing” (PERIDOT PRINT LLC, priority 2021, dated 2026).
≈ marks a conversion by molar mass, not a printed value. Like-named read-outs stand apart in the source and are kept apart here.

solubility in water (water) | Molecule | also measured
29 mg/mL (≈ 172 mM) | Cc1ncc(CO)c(CN)c1O [pyridoxamine] | 
 | Cc1ncc(CO)c(CO)c1O.Cl [pyridoxine hydrochloride] | solubility in water: 200 mg/mL
 | Cc1cc2nc3c(=O)[nH]c(=O)nc-3n(C[C@H](O)[C@H](O)[C@H](O)CO)c2cc1C [riboflavin] | solubility in water (water, depending on the crystal structure): 1000 mg/3,000-15,000 mL
1000 mg/80 mL | cyanocobalamin | 
